Source: ChEMBL document CHEMBL3351714 (Bioorg Med Chem, 2014)
pEC50, pIC50, pKi: −log10 of the molar value.

What was measured:
[1] = molecular target: T1, D(1A) dopamine receptor (Homo sapiens, UniProt P21728); experiment: Displacement of [3H]SCH23390 from D1 receptor (unknown origin) transfected in HEK293T cells at 10 uM after 50 mins by liquid scintillation counting analysis; format: cell-based; settings: HEK-293T
[2] = molecular target: T2, D(2) dopamine receptor (Homo sapiens, UniProt P14416); experiment: Displacement of [3H]Spiperone from D2 receptor (unknown origin) transfected in HEK293T cells at 10 uM after 50 mins by liquid scintillation counting analysis; format: cell-based; settings: HEK-293T
[3] = molecular target: 5-hydroxytryptamine receptor 2A (Homo sapiens) (UniProt P28223); experiment: Displacement of [3H]Ketanserin from 5HT2A receptor (unknown origin) transfected in HEK293T cells at 10 uM after 15 mins by liquid scintillation counting analysis; format: cell-based; settings: HEK-293T
[4] = molecular target: T1, D(1A) dopamine receptor; experiment: Displacement of [3H]SCH23390 from D1 receptor (unknown origin) transfected in HEK293T cells after 50 mins by liquid scintillation counting analysis; format: cell-based, HEK-293T
[5] = molecular target: T3, 5-hydroxytryptamine receptor 1A (Homo sapiens) (UniProt P08908); experiment: Displacement of [3H]8-OH-DPAT from 5HT1A receptor (unknown origin) transfected in HEK293T cells at 10 uM after 50 mins by liquid scintillation counting analysis; format: cell-based; settings: HEK-293T
T3 sequence (whole entry): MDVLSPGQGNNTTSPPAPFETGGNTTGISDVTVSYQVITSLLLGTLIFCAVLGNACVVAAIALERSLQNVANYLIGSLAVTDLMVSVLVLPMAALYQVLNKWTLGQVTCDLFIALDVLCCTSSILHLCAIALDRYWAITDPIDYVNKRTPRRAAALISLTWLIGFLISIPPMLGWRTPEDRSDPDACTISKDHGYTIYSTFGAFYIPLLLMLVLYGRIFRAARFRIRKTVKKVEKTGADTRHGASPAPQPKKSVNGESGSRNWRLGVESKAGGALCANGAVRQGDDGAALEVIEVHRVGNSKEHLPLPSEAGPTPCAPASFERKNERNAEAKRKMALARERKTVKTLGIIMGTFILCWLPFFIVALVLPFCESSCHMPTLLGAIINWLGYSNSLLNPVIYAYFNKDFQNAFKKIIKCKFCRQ

[6] = molecular target: T2, D(2) dopamine receptor; experiment: Displacement of [3H]Spiperone from D2 receptor (unknown origin) transfected in HEK293T cells after 50 mins by liquid scintillation counting analysis; format: cell-based, HEK-293T
[7] = molecular target: D(3) dopamine receptor (Homo sapiens, UniProt P35462); experiment: Displacement of [3H]Spiperone from D3 receptor (unknown origin) transfected in HEK293T cells after 50 mins by liquid scintillation counting analysis; format: cell-based, HEK-293T
[8] = molecular target: T1, D(1A) dopamine receptor; experiment: Antagonist activity at D1 receptor (unknown origin) after 40 mins by [35S]GTP-gammaS binding assay in presence of SKF38393; format: functional
[9] = molecular target: T2, D(2) dopamine receptor; experiment: Antagonist activity at D2 receptor (unknown origin) after 40 mins by [35S]GTP-gammaS binding assay in presence of quinpirole; format: functional
[10] = molecular target: T4, 5-hydroxytryptamine receptor 1A (Homo sapiens, UniProt P08908); experiment: Agonist activity at 5HT1A receptor (unknown origin) after 20 mins by [35S]GTP-gammaS binding assay; format: functional
T4 sequence (P08908 whole entry): T3 sequence (whole entry)

[11] = molecular target: T1, D(1A) dopamine receptor; experiment: Agonist activity at D1 receptor (unknown origin) after 40 mins by [35S]GTP-gammaS binding assay; format: functional
[12] = molecular target: T4, 5-hydroxytryptamine receptor 1A; experiment: Displacement of [3H]8-OH-DPAT from 5HT1A receptor (unknown origin) transfected in HEK293T cells after 50 mins by liquid scintillation counting analysis; format: cell-based, HEK-293T

5-hydroxytryptamine receptor 2A (Homo sapiens), sequence (P28223 whole entry): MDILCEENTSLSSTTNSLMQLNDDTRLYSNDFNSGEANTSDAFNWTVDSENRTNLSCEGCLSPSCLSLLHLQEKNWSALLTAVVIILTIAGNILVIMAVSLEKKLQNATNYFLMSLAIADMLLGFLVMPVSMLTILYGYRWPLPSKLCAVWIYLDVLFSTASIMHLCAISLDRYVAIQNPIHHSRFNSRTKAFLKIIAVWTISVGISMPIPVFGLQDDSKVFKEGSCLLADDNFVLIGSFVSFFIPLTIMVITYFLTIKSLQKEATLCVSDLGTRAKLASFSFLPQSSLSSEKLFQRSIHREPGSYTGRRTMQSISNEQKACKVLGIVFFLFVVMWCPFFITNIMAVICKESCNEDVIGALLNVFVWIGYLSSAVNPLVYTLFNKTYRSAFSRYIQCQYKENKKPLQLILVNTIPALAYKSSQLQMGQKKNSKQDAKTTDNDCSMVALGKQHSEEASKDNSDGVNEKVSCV
D(3) dopamine receptor, sequence (P35462 whole entry): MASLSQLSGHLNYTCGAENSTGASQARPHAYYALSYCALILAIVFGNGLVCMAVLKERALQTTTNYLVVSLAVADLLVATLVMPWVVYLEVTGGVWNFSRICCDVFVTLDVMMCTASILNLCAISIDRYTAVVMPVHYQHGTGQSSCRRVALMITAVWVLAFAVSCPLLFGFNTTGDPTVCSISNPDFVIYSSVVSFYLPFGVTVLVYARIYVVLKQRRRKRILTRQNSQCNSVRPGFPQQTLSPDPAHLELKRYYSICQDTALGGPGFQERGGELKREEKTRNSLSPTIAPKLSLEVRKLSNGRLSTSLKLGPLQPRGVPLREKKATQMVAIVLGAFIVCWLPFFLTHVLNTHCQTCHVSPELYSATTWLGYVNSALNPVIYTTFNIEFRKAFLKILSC
T2 sequence (P14416 whole entry): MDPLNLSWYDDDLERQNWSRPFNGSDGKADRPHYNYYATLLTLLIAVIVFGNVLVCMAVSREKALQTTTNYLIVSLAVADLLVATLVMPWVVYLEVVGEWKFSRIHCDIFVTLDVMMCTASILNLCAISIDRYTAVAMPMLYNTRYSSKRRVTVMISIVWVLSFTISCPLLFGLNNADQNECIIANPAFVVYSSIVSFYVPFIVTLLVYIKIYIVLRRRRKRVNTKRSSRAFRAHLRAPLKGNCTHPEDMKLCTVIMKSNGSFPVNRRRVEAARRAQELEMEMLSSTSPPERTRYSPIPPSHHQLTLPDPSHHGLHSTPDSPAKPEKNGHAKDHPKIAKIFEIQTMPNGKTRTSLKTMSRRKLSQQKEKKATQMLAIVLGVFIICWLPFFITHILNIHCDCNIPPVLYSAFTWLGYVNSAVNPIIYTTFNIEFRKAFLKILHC
T1 sequence (P21728 whole entry): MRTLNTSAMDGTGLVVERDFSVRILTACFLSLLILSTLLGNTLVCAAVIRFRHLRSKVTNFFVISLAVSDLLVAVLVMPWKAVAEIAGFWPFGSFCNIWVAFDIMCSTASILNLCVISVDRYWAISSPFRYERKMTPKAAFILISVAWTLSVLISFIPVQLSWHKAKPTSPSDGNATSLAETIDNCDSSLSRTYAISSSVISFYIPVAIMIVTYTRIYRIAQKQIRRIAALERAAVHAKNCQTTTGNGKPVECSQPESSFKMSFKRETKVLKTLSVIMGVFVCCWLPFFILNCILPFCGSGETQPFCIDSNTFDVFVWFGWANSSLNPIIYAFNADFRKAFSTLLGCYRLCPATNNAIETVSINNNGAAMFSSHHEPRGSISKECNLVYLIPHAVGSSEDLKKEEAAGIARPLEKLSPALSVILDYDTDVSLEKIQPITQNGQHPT

COc1cc2c(cc1O)[C@@H]1Cc3sc(CCCCl)cc3CN1CC2
inhibition [1]: 94.3%
inhibition [2]: 97.2%
inhibition [3]: 62.1%
pKi [4]: 7.11
inhibition [5]: 92.2%
pKi [6]: 7.74

COc1cc2c(cc1O)[C@@H]1Cc3sc(CCC(C)C)cc3CN1CC2
inhibition [1]: 88.8%
inhibition [2]: 90.5%
inhibition [3]: 50.5%
inhibition [5]: 86.9%
pKi [6]: 7.10

COc1cc2c(cc1O)[C@@H]1Cc3sc(CC(C)C)cc3CN1CC2
inhibition [1]: 97.6%
inhibition [3]: 50.3%
pKi [7]: 7.70
pKi [4]: 6.89
inhibition [5]: 83.7%
pIC50 [8]: 5.70
pIC50 [9]: 6.80
pEC50 [10]: 6.23
pKi [6]: 8.12

COc1cc2c(cc1O)[C@@H]1Cc3ccc(O)c(OC)c3CN1CC2 [STEPHOLIDINE]
pKi [7]: 7.05
pKi [4]: 7.91
pEC50 [11]: 7.64
pIC50 [9]: 5.36
pKi [6]: 6.98

CCc1cc2c(s1)C[C@H]1c3cc(O)c(OC)cc3CCN1C2
inhibition [1]: 98.2%
inhibition [2]: 98.5%
inhibition [3]: 45.1%
pKi [4]: 7.58
inhibition [5]: 92.1%
pKi [6]: 7.39

COc1cc2c(cc1O)[C@@H]1Cc3sc(CCCC(C)C)cc3CN1CC2
inhibition [1]: 68.1%
inhibition [2]: 89%
inhibition [3]: 34.9%
inhibition [5]: 36.3%

CCCc1cc2c(s1)C[C@H]1c3cc(O)c(OC)cc3CCN1C2
inhibition [1]: 98.2%
inhibition [2]: 96.3%
inhibition [3]: 29.6%
pKi [4]: 7.21
inhibition [5]: 85.3%
pKi [6]: 7.41

COc1cc2c(cc1O)[C@@H]1Cc3sc(CC(C)(C)C)cc3CN1CC2
inhibition [1]: 93.8%
inhibition [2]: 97%
inhibition [3]: 19.3%
pKi [4]: 6.20
inhibition [5]: 79.8%
pKi [6]: 6.72

COc1cc2c(cc1O)[C@@H]1Cc3sc(CC4CC4)cc3CN1CC2
inhibition [1]: 96.8%
inhibition [2]: 99%
inhibition [3]: 39.3%
pKi [4]: 7.18
inhibition [5]: 96.1%
pKi [12]: 6.76
pKi [6]: 7.94

CCCCCc1cc2c(s1)C[C@H]1c3cc(O)c(OC)cc3CCN1C2
inhibition [1]: 94.7%
inhibition [2]: 103%
inhibition [3]: 45.9%
pKi [4]: 6.88
inhibition [5]: 81.7%
pKi [6]: 7.33

COc1cc2c(cc1O)[C@@H]1Cc3sc(CCCl)cc3CN1CC2
inhibition [1]: 96.7%
inhibition [2]: 98.4%
inhibition [3]: 34.8%
pKi [4]: 7.78
inhibition [5]: 90.8%
pKi [6]: 7.46

CCC(C)Cc1cc2c(s1)C[C@H]1c3cc(O)c(OC)cc3CCN1C2 (some centres undefined)
inhibition [1]: 92%
inhibition [2]: 102%
inhibition [3]: 33.4%
pKi [4]: 6.39
inhibition [5]: 69.4%
pKi [6]: 7.54

COc1cc2c(cc1O)[C@@H]1Cc3sc(CCCCCl)cc3CN1CC2
inhibition [1]: 91.1%
inhibition [2]: 103%
inhibition [3]: 39.6%
pKi [4]: 6.14
inhibition [5]: 91.9%
pKi [12]: 6.18
pKi [6]: 7.92

COc1cc2c(cc1O)[C@@H]1Cc3sc(CC4CCC4)cc3CN1CC2
inhibition [1]: 97.1%
inhibition [2]: 98.7%
inhibition [3]: 44.9%
pKi [4]: 6.42
inhibition [5]: 93.7%
pKi [12]: 6.11
pKi [6]: 7.47

COc1cc2c(cc1O)[C@@H]1Cc3sc(CC(C)Cl)cc3CN1CC2 (some centres undefined)
inhibition [1]: 91.5%
inhibition [2]: 105%
inhibition [3]: 52.1%
pKi [4]: 7.34
inhibition [5]: 91.6%
pKi [12]: 6.54
pKi [6]: 7.78

CCCCc1cc2c(s1)C[C@H]1c3cc(O)c(OC)cc3CCN1C2
inhibition [1]: 98.6%
inhibition [2]: 99.5%
inhibition [3]: 53.3%
pKi [7]: 7.40
pKi [4]: 7.21
inhibition [5]: 90%
pIC50 [8]: 6.22
pIC50 [9]: 6.04
pEC50 [10]: 6.07
pKi [6]: 7.75

COc1cc2c(cc1O)[C@@H]1Cc3sccc3CN1CC2
inhibition [1]: 98.1%
inhibition [2]: 95.8%
inhibition [3]: 82.3%
pKi [4]: 7.06
inhibition [5]: 89.7%
pKi [6]: 7.06
